Experimental data published in the supplement of paper PMC10627819.

What was measured:
Experiment in all cases: fitness (endpoint OD595 vs no drug) (fraction); higher = more growth
S. aureus DSM 20231 = tested on: S. aureus DSM 20231
Summary of the method: (§1)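 Fitness is computed from the optical density at which cultures reach stationary phase, divided by the robust mean of no-drug control wells. Any value above 1 is set to 1. Cultures started at OD595 0.01 in 384-well plates with TSB, LB Lennox or CY at 37 °C, and OD595 was read every 30 min for 14 h against a first-reading background.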

S. pneumoniae D39V = tested on: S. pneumoniae D39V
Summary of the method: as §1

B. subtilis 168 = tested on: B. subtilis 168
Summary of the method: as §1

S. aureus Newman = tested on: S. aureus Newman
Summary of the method: as §1
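Also: OD595 on entry to stationary phase over no-drug wells; at most 1.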

CN(C)[C@@H]1C(O)=C(C(N)=O)C(=O)[C@@]2(O)C(O)=C3C(=O)c4c(O)ccc(Cl)c4[C@@](C)(O)[C@H]3C[C@@H]12 [Chlortetracycline] + COc1ccc(C[C@H](N)C(=O)N[C@H]2[C@@H](O)[C@H](n3cnc4c(N(C)C)ncnc43)O[C@@H]2CO)cc1 [Puromycin]
fitness, one replicate
Settings | first compound 0.006 µg/mL | first compound 0.012 µg/mL | first compound 0.024 µg/mL | first compound 0.048 µg/mL
S. aureus DSM 20231, partner 0.39 µg/mL | 0.853 | – | – | –
S. aureus DSM 20231, partner 0.78 µg/mL | 0.847 | – | – | –
S. aureus DSM 20231, partner 1.56 µg/mL | 0.731 | – | – | –
S. aureus DSM 20231, partner 3.12 µg/mL | – | 0.325 | 0.0559 | 0.0249
S. aureus DSM 20231, partner 6.24 µg/mL | – | 0.0809 | 0.0524 | 0.0264
S. pneumoniae D39V, partner 1 µg/mL | – | 0.822 | 0.875 | 0.647
S. pneumoniae D39V, partner 2 µg/mL | – | 0.793 | 0.773 | 0.453
S. pneumoniae D39V, partner 4 µg/mL | – | 0.619 | 0.606 | 0.171

fitness
Settings | partner 0.39 µg/mL | partner 0.78 µg/mL | partner 1 µg/mL | partner 1.56 µg/mL | partner 2 µg/mL | partner 4 µg/mL
B. subtilis 168, first compound 0.0475 µg/mL | 0.858 | 0.901 | – | 0.904 | – | –
B. subtilis 168, first compound 0.095 µg/mL | 0.741 | 0.728 | – | 0.671 | – | –
B. subtilis 168, first compound 0.19 µg/mL | 0.512 | 0.459 | – | 0.351 | – | –
S. aureus DSM 20231, first compound 0.012 µg/mL | 0.567 | 0.589 | – | 0.497 | – | –
S. aureus DSM 20231, first compound 0.024 µg/mL | 0.2 | 0.217 | – | 0.137 | – | –
S. aureus DSM 20231, first compound 0.048 µg/mL | 0.053 | 0.171 | – | 0.0612 | – | –
S. pneumoniae D39V, first compound 0.375 µg/mL | – | – | 0.0657 | – | 0.0757 | 0.0703
S. pneumoniae D39V, first compound 0.75 µg/mL | – | – | 0.0562 | – | 0.0783 | 0.0776
S. pneumoniae D39V, first compound 1.5 µg/mL | – | – | 0.0348 | – | 0.0557 | 0.0492

C[C@@H]1O[C@@H]1P(=O)(O)O [Fosfomycin] + CO[C@@]12[C@H](COC(N)=O)C3=C(C(=O)C(C)=C(N)C3=O)N1C[C@@H]1N[C@@H]12 [Mitomycin C]
fitness
Settings | first compound 0.781 µg/mL | first compound 1.25 µg/mL | first compound 1.562 µg/mL | first compound 2.5 µg/mL | first compound 3.124 µg/mL | first compound 5 µg/mL
S. aureus DSM 20231, partner 0.0156 µg/mL | 0.607 | – | 0.494 | – | 0.43 | –
S. aureus DSM 20231, partner 0.0312 µg/mL | 0.57 | – | 0.497 | – | 0.318 | –
S. aureus DSM 20231, partner 0.0625 µg/mL | 0.49 | – | 0.35 | – | 0.165 | –
S. aureus Newman, partner 0.0156 µg/mL | 0.576 | – | 0.452 | – | 0.124 | –
S. aureus Newman, partner 0.0312 µg/mL | 0.543 | – | 0.363 | – | 0.0839 | –
S. aureus Newman, partner 0.0625 µg/mL | 0.373 | – | 0.114 | – | 0.0142 | –
S. pneumoniae D39V, partner 0.001075 µg/mL | – | 0.903 | – | 0.869 | – | 0.772
S. pneumoniae D39V, partner 0.002 µg/mL | – | 0.858 | – | 0.812 | – | 0.694
S. pneumoniae D39V, partner 0.00215 µg/mL | – | 0.843 | – | 0.837 | – | 0.733
S. pneumoniae D39V, partner 0.004 µg/mL | – | 0.793 | – | 0.77 | – | 0.617
S. pneumoniae D39V, partner 0.0043 µg/mL | – | 0.748 | – | 0.734 | – | 0.652
S. pneumoniae D39V, partner 0.008 µg/mL | – | 0.65 | – | 0.648 | – | 0.574
